Key:
Type in all cases: ADME, organism-based
[1] = Half life in iv or po dosed Sprague-Dawley rat; settings: in vivo
[2] = Plasma clearance in iv or po dosed Sprague-Dawley rat
[3] = Oral bioavailability in Sprague-Dawley rat; settings: in vivo
[4] = Volume of distribution at steady state in iv or po dosed Sprague-Dawley rat; settings: in vivo, read-out: Vdss

Compound | half-life [1] | clearance [2] | bioavailability [3] | Vd [4]
O=C1[C@@H](NS(=O)(=O)c2ccc3c(Cl)c[nH]c3c2)CCN1c1cc2c(cc1F)CNCC2 | 6.2 h | 1.3 mL/min/kg | 6% | 0.5 L/kg
CN[C@@H](C)c1ccc(N2CC[C@H](NS(=O)(=O)c3ccc4cc(Cl)ccc4c3)C2=O)c(F)c1 | 18 h | 1.6 mL/min/kg | > 10% | 2.4 L/kg
O=C1[C@@H](NS(=O)(=O)c2ccc3cc[nH]c3c2)CCN1c1ccc2c(c1)CCNC2 | 6.1 h | 12 mL/min/kg | < 1% | 4.1 L/kg
O=C1[C@@H](NS(=O)(=O)c2ccc3cc(Cl)ccc3c2)CCN1c1ccc2c(c1)CCCNC2 | 9.7 h | 6.8 mL/min/kg | 10% | 5.5 L/kg
O=C1[C@@H](NS(=O)(=O)c2ccc3cc(Cl)ccc3c2)CCN1c1ccc2c(c1)CCNC2 | 11 h | 4 mL/min/kg | 24% | 3.6 L/kg
O=C1[C@@H](NS(=O)(=O)c2ccc3cc(Cl)ccc3c2)CCN1c1ccc2c(c1F)CCNC2 | 6.7 h | 2.1 mL/min/kg |  | 2.4 L/kg
O=C1[C@@H](NS(=O)(=O)c2ccc3c(Cl)c[nH]c3c2)CCN1c1ccc2c(c1)CCNC2 | 6.3 h | 7.7 mL/min/kg | < 1% | 2.9 L/kg
O=C1[C@@H](NS(=O)(=O)c2ccc3c(Cl)c[nH]c3c2)CCN1c1ccc2c(c1F)CCNC2 | 7.8 h | 2.7 mL/min/kg | 7% | 1.5 L/kg
O=C1[C@@H](NS(=O)(=O)c2ccc3cc(Cl)ccc3c2)CCN1c1cc2c(cc1F)CNCC2 | 7.5 h | 1.7 mL/min/kg | 28% | 1 L/kg

The next lines start with the values.

half-life [1] | clearance [2] | bioavailability [3] | Vd [4] | Compound
0.4 h | 26 mL/min/kg | 33% | 0.7 L/kg | CN1CCc2cc(N3CC[C@H](NS(=O)(=O)/C=C/c4ccc(Cl)s4)C3=O)ccc2C1
4.4 h | 7.8 mL/min/kg | 45% | 2.6 L/kg | O=C1[C@@H](NS(=O)(=O)/C=C/c2ccc(Cl)s2)CCN1c1ccc2c(c1)CCCNC2
3.3 h | 3 mL/min/kg | 68% | 0.9 L/kg | O=C1[C@@H](NS(=O)(=O)/C=C/c2ccc(Cl)s2)CCN1c1ccc2c(c1F)CCNC2
3.5 h | 3 mL/min/kg |  | 0.9 L/kg | O=C1[C@@H](NS(=O)(=O)/C=C/c2ccc(Cl)s2)CCN1c1ccc2c(c1)CCNC2
4.9 h | 1.4 mL/min/kg | 43% | 0.5 L/kg | O=C1[C@@H](NS(=O)(=O)/C=C/c2ccc(Cl)s2)CCN1c1cc2c(cc1F)CNCC2

Reference: ChEMBL document CHEMBL1687934, “The discovery of potent and long-acting oral factor Xa inhibitors with tetrahydroisoquinoline and benzazepine P4 motifs” (Bioorg Med Chem Lett, 2011)
